This note sets out measurements from ChEMBL document CHEMBL1133808, “The discovery of sulfonylated dipeptides as potent VLA-4 antagonists” (Bioorg Med Chem Lett, 2001).

The target of series [1] is T1, Integrin alpha-4/beta-1 (Homo sapiens, UniProt P05556+P13612). In words: Inhibition of [125I]VCAM-Ig binding to VLA-4 integrin of human Jurkat cells. It is filed as cell-based.
A short description of series [2]: Plasma clearance in Sprague-Dawley rats. It is filed as ADME, organism-based. The conditions noted are these: rat, read-out: Clp.
The target in series [3] is T2, Integrin alpha-4/beta-7 (Homo sapiens, UniProt P13612+P26010).
T2 sequence (P13612 whole entry): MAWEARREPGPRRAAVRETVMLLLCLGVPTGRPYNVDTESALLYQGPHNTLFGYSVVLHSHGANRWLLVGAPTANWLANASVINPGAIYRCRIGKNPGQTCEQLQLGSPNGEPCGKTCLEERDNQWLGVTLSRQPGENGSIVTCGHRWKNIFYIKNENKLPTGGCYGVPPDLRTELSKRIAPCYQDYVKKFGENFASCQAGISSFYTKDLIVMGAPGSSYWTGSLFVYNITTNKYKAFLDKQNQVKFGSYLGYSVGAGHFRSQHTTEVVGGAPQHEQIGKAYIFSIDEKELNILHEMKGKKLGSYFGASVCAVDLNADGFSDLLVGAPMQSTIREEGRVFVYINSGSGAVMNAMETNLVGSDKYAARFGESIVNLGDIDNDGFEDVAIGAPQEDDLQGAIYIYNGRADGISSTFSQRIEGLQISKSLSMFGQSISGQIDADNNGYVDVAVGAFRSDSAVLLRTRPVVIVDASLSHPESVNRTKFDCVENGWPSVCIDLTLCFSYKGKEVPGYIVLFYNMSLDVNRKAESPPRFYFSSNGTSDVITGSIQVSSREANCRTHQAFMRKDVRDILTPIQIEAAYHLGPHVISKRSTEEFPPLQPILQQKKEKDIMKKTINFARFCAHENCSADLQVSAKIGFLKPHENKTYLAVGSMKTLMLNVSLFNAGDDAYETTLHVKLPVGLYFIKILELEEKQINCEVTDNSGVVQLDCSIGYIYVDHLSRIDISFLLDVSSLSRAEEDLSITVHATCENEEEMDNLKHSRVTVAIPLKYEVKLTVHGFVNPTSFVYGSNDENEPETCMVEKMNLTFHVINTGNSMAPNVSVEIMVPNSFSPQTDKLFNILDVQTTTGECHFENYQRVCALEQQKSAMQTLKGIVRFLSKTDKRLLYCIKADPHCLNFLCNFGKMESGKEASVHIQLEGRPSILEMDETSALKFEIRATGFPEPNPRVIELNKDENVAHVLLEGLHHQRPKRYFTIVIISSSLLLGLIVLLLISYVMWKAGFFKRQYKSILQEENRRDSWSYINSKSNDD
T2 sequence (P26010 whole entry): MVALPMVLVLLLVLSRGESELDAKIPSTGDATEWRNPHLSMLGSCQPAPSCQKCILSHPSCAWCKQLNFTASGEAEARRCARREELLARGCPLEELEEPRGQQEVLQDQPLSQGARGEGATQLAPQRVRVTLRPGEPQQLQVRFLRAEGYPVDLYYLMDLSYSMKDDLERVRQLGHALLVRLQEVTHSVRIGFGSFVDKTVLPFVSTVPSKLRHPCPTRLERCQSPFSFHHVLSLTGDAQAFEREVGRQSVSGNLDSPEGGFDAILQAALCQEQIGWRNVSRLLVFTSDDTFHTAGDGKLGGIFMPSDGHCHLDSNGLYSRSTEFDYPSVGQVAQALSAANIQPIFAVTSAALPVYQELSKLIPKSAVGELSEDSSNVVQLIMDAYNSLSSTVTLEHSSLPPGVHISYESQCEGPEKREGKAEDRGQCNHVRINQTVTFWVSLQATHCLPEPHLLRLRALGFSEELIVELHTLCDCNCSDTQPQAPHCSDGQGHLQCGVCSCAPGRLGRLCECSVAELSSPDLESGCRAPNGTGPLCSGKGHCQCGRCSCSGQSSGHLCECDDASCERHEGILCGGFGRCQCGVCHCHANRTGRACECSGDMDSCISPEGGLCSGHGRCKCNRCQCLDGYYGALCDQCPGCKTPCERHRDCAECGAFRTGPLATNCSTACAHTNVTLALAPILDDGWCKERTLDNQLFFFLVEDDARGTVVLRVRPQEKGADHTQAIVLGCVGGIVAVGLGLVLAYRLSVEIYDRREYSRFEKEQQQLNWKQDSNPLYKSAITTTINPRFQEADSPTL
Nature of the series: Inhibition of [125I]MAdCAM-Ig binding to alpha4-beta7 integrin of human RPMI-8866 cells. It is filed as cell-based.

Series [4] has as its target T2, Integrin alpha-4/beta-7. Nature of the series: Inhibition of [125I]VCAM-Ig binding to alpha4-beta7 integrin of human RPMI-8866 cells. It is filed as cell-based.
In series [5] the target is T1, Integrin alpha-4/beta-1. Nature of the series: Antagonistic activity against VLA-4 integrin of human jurkat cells using [125I]VCAM-Ig as radioligand. It is filed as functional, cell-based.
Series [6] in a line: Plasma half-life in Sprague-Dawley rats. The settings on record: rat. It is filed as ADME, organism-based.
Series [7] in a line: Oral bioavailability in Sprague-Dawley rats. The settings on record: rat, in vivo. It is filed as ADME, organism-based.
Series [8] in a line: Compound was tested for protein binding in human plasma. It is filed as ADME, cell-free. The conditions noted are these: read-out: Protein binding (converted).
The target in series [9] is T1, Integrin alpha-4/beta-1. Nature of the series: Inhibition of [125I]-VCAM-Ig binding to VLA-4 integrin of human Jurkat cells. It is filed as cell-based.
Series [10] can be described thus: Oral bioavailability in rat (Sprague-Dawley) (dose 1 mg/kg i.v.). It is filed as ADME, organism-based. The settings on record: in vivo.
The nature of series [11]: Oral bioavailability in rat (Sprague-Dawley) (dose 2 mg/kg). The settings on record: in vivo. It is filed as ADME, organism-based.
A short description of series [12]: Plasma half-life in Beagle dogs. It is filed as ADME, organism-based, Canis lupus familiaris. The conditions noted are these: dog.
Series [13] can be described thus: Plasma clearance in Beagle dogs. It is filed as ADME, organism-based, Canis lupus familiaris. The settings on record: dog, read-out: Clp.
Series [14] is described as follows: Compound was tested for protein binding in rat plasma. It is filed as ADME, organism-based. The conditions noted are these: read-out: Protein binding (converted).
Series [15] is described as follows: Plasma half-life in rhesus monkey. The conditions noted are these: cercopithecidae.
Series [16] is described as follows: Plasma clearance in rhesus monkey. The conditions noted are these: cercopithecidae, read-out: Clp. It is filed as ADME, organism-based.

T1 sequence (P05556 whole entry, one chain of several): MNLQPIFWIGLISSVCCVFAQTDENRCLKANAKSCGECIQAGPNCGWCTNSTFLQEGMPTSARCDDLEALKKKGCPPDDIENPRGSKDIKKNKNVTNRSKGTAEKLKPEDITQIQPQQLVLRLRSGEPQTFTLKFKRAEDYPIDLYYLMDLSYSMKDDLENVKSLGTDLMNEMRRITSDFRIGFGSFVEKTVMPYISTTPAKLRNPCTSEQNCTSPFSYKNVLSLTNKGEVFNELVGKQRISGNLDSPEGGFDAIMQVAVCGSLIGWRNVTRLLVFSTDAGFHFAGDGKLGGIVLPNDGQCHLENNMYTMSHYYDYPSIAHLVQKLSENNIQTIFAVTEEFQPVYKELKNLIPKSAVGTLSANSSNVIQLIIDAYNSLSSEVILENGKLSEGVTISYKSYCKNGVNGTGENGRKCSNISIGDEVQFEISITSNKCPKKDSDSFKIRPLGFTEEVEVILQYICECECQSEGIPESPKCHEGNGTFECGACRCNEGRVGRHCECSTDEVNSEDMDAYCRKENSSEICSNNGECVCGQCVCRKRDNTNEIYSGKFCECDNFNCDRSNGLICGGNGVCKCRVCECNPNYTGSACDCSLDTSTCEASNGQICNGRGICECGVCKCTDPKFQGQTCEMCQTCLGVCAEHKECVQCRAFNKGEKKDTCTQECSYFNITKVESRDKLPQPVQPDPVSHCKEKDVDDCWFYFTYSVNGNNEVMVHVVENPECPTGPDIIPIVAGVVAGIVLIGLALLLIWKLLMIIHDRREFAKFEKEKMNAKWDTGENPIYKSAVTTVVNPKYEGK

What is called IC50 is the point on the concentration scale where inhibition reaches its midpoint. `CCCC[C@H](NC(=O)[C@@H]1Cc2ccccc2CN1S(=O)(=O)c1ccc(OC)c(OC)c1)C(=O)O`: the IC50 on Integrin alpha-4/beta-1 [1] turned out to be 58 nM.
Regarding `COc1cccc(OC)c1-c1ccc(C[C@H](NC(=O)[C@@H]2CCN2S(=O)(=O)c2cc(Cl)cc(Cl)c2)C(=O)O)cc1`, the clearance in [2] is greater than 100 mL/min/kg. For the same compound, the IC50 at Integrin alpha-4/beta-7 [3] came to 10.6 nM.
In general, half-life refers to the time needed for the level to fall by half in the phase considered. Consider `COc1cccc(OC)c1-c1ccc(C[C@H](NC(=O)[C@]2(C)CCCN2S(=O)(=O)c2cc(Cl)cc(Cl)c2)C(=O)O)cc1`, for which the clearance in series [2] was greater than 100 mL/min/kg. Further, the IC50 on Integrin alpha-4/beta-7 [4] came out at 2.98 nM; at Integrin alpha-4/beta-1 [5], 0.08 nM; at Integrin alpha-4/beta-7 [3], 11.5 nM. Further, the half-life in series [6] is 132 min.
The term bioavailability denotes the share of a dose that reaches the circulation, judged against a reference dose that is usually intravenous. For the compound `O=C(O)[C@H](Cc1ccc2ccccc2c1)NC(=O)[C@@H]1CCCN1S(=O)(=O)c1cc(Cl)cc(Cl)c1`, the clearance in series [2] is 49 mL/min/kg. For the same compound, on Integrin alpha-4/beta-1 [5], the IC50 was determined as 0.5 nM. In series [7], this compound yielded a bioavailability of 15%. The compound further had a half-life in [6] of 36 min. The fraction unbound in series [8] is 0.004.
On Integrin alpha-4/beta-1 [9], `COc1ccc(S(=O)(=O)N2Cc3ccccc3C[C@H]2C(=O)N[C@@H](CCC(=O)O)C(=O)O)cc1OC` yielded an IC50 of 257 nM.
On to `N#Cc1ccccc1-c1ccc(C[C@H](NC(=O)[C@@H]2CCCN2S(=O)(=O)c2cc(Cl)cc(Cl)c2)C(=O)O)cc1`, for which the clearance in series [2] worked out at 21 mL/min/kg. The compound also registered an IC50 on Integrin alpha-4/beta-1 [5] of 0.46 nM. Further, the bioavailability in series [10] and in [11] was 4% throughout.
Take `C[C@@]1(C(=O)N[C@@H](Cc2ccc(-c3ccccn3)cc2)C(=O)O)CCCN1S(=O)(=O)c1cc(Cl)cc(Cl)c1`: the clearance in series [2] is 17 mL/min/kg. Besides, the IC50 on Integrin alpha-4/beta-1 [5] was determined as 0.15 nM; at Integrin alpha-4/beta-7 [3] it was 97.1 nM. The same compound gave a half-life in [6] of 60 min.
For `COc1cccnc1-c1ccc(C[C@H](NC(=O)[C@]2(C)CCCN2S(=O)(=O)c2cc(Cl)cc(Cl)c2)C(=O)O)cc1` the same measures were 71 mL/min/kg, 0.11 nM, 52.5 nM and 30 min.
Consider `C[C@@]1(C(=O)N[C@@H](Cc2ccc(-c3ccccc3C#N)cc2)C(=O)O)CCCN1S(=O)(=O)c1cc(Cl)cc(Cl)c1`, for which the half-life is 204 min in series [12], 90 min in [6] and 318 min in series [15]. Further, the IC50 at Integrin alpha-4/beta-7 [4] came out at 345 nM; on Integrin alpha-4/beta-1 [5], 0.92 nM. Further, the figures for the clearance in [13] and in series [16] were 25 mL/min/kg and 12 mL/min/kg, respectively. In addition, the fraction unbound in [14] and in series [8] was 0.005 throughout.
With `COc1ccccc1-c1ccc(C[C@H](NC(=O)[C@@H]2CCCN2S(=O)(=O)c2cc(Cl)cc(Cl)c2)C(=O)O)cc1`, the clearance in series [2] was 39 mL/min/kg. At Integrin alpha-4/beta-1 [5], this compound showed an IC50 of 0.64 nM. The bioavailability in series [10] and in series [11] was 3% each time.
Turning to `C[C@@]1(C(=O)N[C@@H](Cc2ccc(-c3ccccc3C(N)=O)cc2)C(=O)O)CCCN1S(=O)(=O)c1cc(Cl)cc(Cl)c1`, the IC50 was determined as 24.3 nM on Integrin alpha-4/beta-7 [4] and 0.14 nM on Integrin alpha-4/beta-1 [5]. Also, in [6], the half-life is 66 min.
Regarding `COc1cccc(OC)c1-c1ccc(C[C@H](NC(=O)[C@]2(C)CCN2S(=O)(=O)c2cc(Cl)cc(Cl)c2)C(=O)O)cc1`, the clearance in [2] is greater than 100 mL/min/kg. In addition, the IC50 on Integrin alpha-4/beta-1 [5] stood at 0.07 nM; on Integrin alpha-4/beta-7 [3], 14.2 nM. In series [6], this compound gave a half-life of 90 min.
